Drawing on PubChem BioAssay AID328 (DTP/NCI, 2004), this text covers T/C for 21 compounds.

Values joined by “and” are separate entries in the source; they are usually repeats but may differ in a detail not shown here. Equal values may be shown once. Inconclusive results and toxic doses are left out.

This test has as its system BDF1 mice, P388 leukemia ip, median survival T/C. Briefly: NCI In Vivo Anticancer Drug Screen. Data for tumor model P388 Leukemia (intraperitoneal) in B6D2F1 (BDF1) mice. The note with it: endpoint: median survival time, higher = longer survival. The essentials:
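Steps: implant the tumour, treat one group with compound and another with vehicle, record survival, then divide treated by control.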

[1] abbreviates: dose: 100.0 mg/kg/injection, schedule: Q04DX003 (ip), vehicle: Klucel (hydroxypropylcellulose) (HPC).
[2] abbreviates: dose: 200.0 mg/kg/injection, schedule: Q01DX009 (ip), vehicle: Klucel (hydroxypropylcellulose) (HPC).
Where [3] appears, read: dose: 200.0 mg/kg/injection, schedule: Q04DX003 (ip), vehicle: Klucel (hydroxypropylcellulose) (HPC).
Where [4] appears, read: dose: 400.0 mg/kg/injection, schedule: Q04DX003 (ip), vehicle: Klucel (hydroxypropylcellulose) (HPC).
The mark [5] stands for this setting: dose: 50.0 mg/kg/injection, schedule: Q01DX009 (ip), vehicle: saline with Tween-80.
The mark [6] stands for this setting: dose: 100.0 mg/kg/injection, schedule: Q01DX009 (ip), vehicle: saline with Tween-80.
[7] abbreviates: dose: 200.0 mg/kg/injection, schedule: Q01DX009 (ip), vehicle: saline with Tween-80.
Setting [8] is: dose: 50.0 mg/kg/injection, schedule: Q01DX009 (ip), vehicle: saline.
The mark [9] stands for this setting: dose: 100.0 mg/kg/injection, schedule: Q01DX009 (ip), vehicle: saline.
Setting [10] is: dose: 200.0 mg/kg/injection, schedule: Q01DX009 (ip), vehicle: saline.
[11] abbreviates: dose: 6.25 mg/kg/injection, schedule: Q01DX009 (ip), vehicle: saline with Tween-80.
Where [12] appears, read: dose: 25.0 mg/kg/injection, schedule: Q04DX003 (ip), vehicle: water.
Where [13] appears, read: dose: 50.0 mg/kg/injection, schedule: Q04DX003 (ip), vehicle: water.
The mark [14] stands for this setting: dose: 25.0 mg/kg/injection, schedule: Q01DX009 (ip), vehicle: saline.
The mark [15] stands for this setting: dose: 6.25 mg/kg/injection, schedule: Q01DX009 (ip), vehicle: saline.
Setting [16] is: dose: 100.0 mg/kg/injection, schedule: Q01DX009 (ip), vehicle: Klucel (hydroxypropylcellulose) (HPC).
Where [17] appears, read: dose: 50.0 mg/kg/injection, schedule: Q01DX005 (ip), vehicle: saline with Tween-80.

In the case of `CCOc1ccc(/C=N/NS(=O)(=O)c2ccc(C)cc2)cc1`, the T/C was 100 % of control under setting [1], 92 % of control under setting [2], 100 % of control under setting [3] and 100 % of control under setting [4].

With `Nc1nc(-c2cccc3ccccc23)cc2ccccc12`, the T/C was 115 % of control (dose: 25.0 mg/kg/injection, schedule: Q01DX009 (ip), vehicle: saline with Tween-80); 119 % of control under setting [5]; 151 % of control and 182 % of control under setting [6]; 151 % of control under setting [7].

On to `O=C(O)C1=NNC(C(=O)O)=NN1`, for which the T/C is 98 % of control under setting [8], 100 % of control under setting [9] and 98 % of control under setting [10].

Turning to `Nc1nc(N)c2c(Cl)c(CNc3ccc(Cl)c(Cl)c3)ccc2n1`, the T/C by setting is: under setting [11], 154 % of control; (dose: 6.25 mg/kg/injection, schedule: Q01DX009 (ip), vehicle: water) 123 % of control; (dose: 12.5 mg/kg/injection, schedule: Q01DX009 (ip), vehicle: saline with Tween-80) 169 % of control; (dose: 12.5 mg/kg/injection, schedule: Q01DX009 (ip), vehicle: water) 179 % of control; (dose: 25.0 mg/kg/injection, schedule: Q01DX009 (ip), vehicle: water) 203 % of control; under setting [12], 116 % of control. The T/C (dose: 50.0 mg/kg/injection, schedule: Q01DX009 (ip), vehicle: water) was 88 % of control; the T/C under setting [13] is 169 % of control; the T/C (dose: 100.0 mg/kg/injection, schedule: Q04DX003 (ip), vehicle: water) was 153 % of control and 173 % of control; the T/C (dose: 300.0 mg/kg/injection, schedule: Q04DX003 (ip), vehicle: water) was 86 % of control.

Consider `CC(=N\O)/C(C)=N/O.CC(=N\O)/C(C)=N/O.[Cl][Rh][Cl]`, for which the T/C by setting is: under setting [14], 94 % of control; under setting [8], 119 % of control; under setting [9], 95 % of control and 119 % of control; under setting [10], 100 % of control.

With `COc1cccc2c1C(=O)c1c(O)c3c(c(O)c1C2=O)C[C@@](O)(C(=O)CO)C[C@@H]3OC1CC(NC(=S)Nc2ccc3ccccc3c2)C(O)C(C)O1` (stereo not given in full), the T/C (dose: 1.56 mg/kg/injection, schedule: Q01DX009 (ip), vehicle: saline) is 95 % of control; the T/C (dose: 3.12 mg/kg/injection, schedule: Q01DX009 (ip), vehicle: saline) is 86 % of control; the T/C under setting [15] is 94 % of control; the T/C under setting [14] is 99 % of control and 107 % of control; the T/C under setting [8] is 107 % of control; the T/C under setting [9] was 96 % of control.

As for `N#CSCc1ccc(CSC#N)c(Cl)c1`, the T/C is 118 % of control (dose: 1.56 mg/kg/injection, schedule: Q01DX009 (ip), vehicle: saline with Tween-80) and 100 % of control under setting [11].

For `c1ccc2c(c1)NC1(CCCCC1)S2`, the T/C is 104 % of control under setting [16]; 95 % of control under setting [1]; 104 % of control under setting [2]; 105 % of control under setting [3]; 109 % of control (dose: 400.0 mg/kg/injection, schedule: Q01DX009 (ip), vehicle: Klucel (hydroxypropylcellulose) (HPC)); 105 % of control under setting [4].

Turning to `CCCCN(CCCC)CC(O)c1ccc2cc(Cl)cc(Cl)c2n1` (stereo not given), the T/C is 110 % of control (dose: 6.25 mg/kg/injection, schedule: Q04DX003 (ip), vehicle: saline with Tween-80); 115 % of control (dose: 12.5 mg/kg/injection, schedule: Q04DX003 (ip), vehicle: saline with Tween-80); 110 % of control (dose: 25.0 mg/kg/injection, schedule: Q04DX003 (ip), vehicle: saline with Tween-80).

Turning to `Clc1cccc(NC2=NCCN=C(Nc3cccc(Cl)c3)SS2)c1`, the T/C under setting [5] was 111 % of control, the T/C under setting [6] was 102 % of control and the T/C under setting [7] is 111 % of control.

With `CCOC(=O)c1ccc(NCC(=N)N)cc1`, the T/C is, setting by setting: (dose: 37.5 mg/kg/injection, schedule: Q01DX001 (ip), vehicle: saline sonified) 100 % of control; (dose: 75.0 mg/kg/injection, schedule: Q01DX001 (ip), vehicle: saline sonified) 100 % of control; (dose: 150.0 mg/kg/injection, schedule: Q01DX001 (ip), vehicle: saline sonified) 100 % of control.

As for `CCC(=O)NC1=C(N2CC2)C(=O)C(NC(=O)CC)=C(N2CC2)C1=O`, the T/C (dose: 1.0 mg/kg/injection, schedule: Q01DX009 (ip), vehicle: saline) is 171 % of control and 185 % of control; the T/C (dose: 2.0 mg/kg/injection, schedule: Q01DX009 (ip), vehicle: saline) is 225 % of control and 228 % of control; the T/C (dose: 4.0 mg/kg/injection, schedule: Q01DX009 (ip), vehicle: saline) was 90 % of control and 119 % of control.

`Cc1nccnc1N`: the T/C is 94 % of control under setting [15]; 105 % of control (dose: 12.5 mg/kg/injection, schedule: Q01DX009 (ip), vehicle: saline); 102 % of control under setting [14]; 102 % of control under setting [8]; 94 % of control (dose: 50.0 mg/kg/injection, schedule: Q04DX003 (ip), vehicle: saline); 105 % of control under setting [9]. In addition, the T/C is, setting by setting: (dose: 100.0 mg/kg/injection, schedule: Q04DX003 (ip), vehicle: saline) 98 % of control and 102 % of control; (dose: 150.0 mg/kg/injection, schedule: Q04DX003 (ip), vehicle: saline) 88 % of control; (dose: 200.0 mg/kg/injection, schedule: Q04DX003 (ip), vehicle: saline) 100 % of control and 124 % of control; (dose: 300.0 mg/kg/injection, schedule: Q04DX003 (ip), vehicle: saline) 100 % of control.

Turning to `n1nc(Nc2nn[nH]n2)n[nH]1`, the T/C is, setting by setting: (dose: 50.0 mg/kg/injection, schedule: Q01DX009 (ip), vehicle: Klucel (hydroxypropylcellulose) (HPC)) 90 % of control; under setting [16], 107 % of control; under setting [2], 110 % of control.

With `C=CC[N+](CC=C)(CC=C)CCC[N+](CC=C)(CC=C)CC=C`, the T/C under setting [12] is 107 % of control and the T/C under setting [13] was 88 % of control.

On to `CCN(CC)c1oc2ccc3ccccc3c2c(=O)c1Cl`, for which the T/C under setting [5] is 97 % of control, the T/C under setting [6] was 94 % of control and the T/C under setting [7] is 92 % of control.

As for `O=c1[nH]c(=O)c2cccnc2[nH]1`, the T/C (dose: 25.0 mg/kg/injection, schedule: Q01DX009 (ip), vehicle: saline sonified) is 100 % of control; the T/C (dose: 50.0 mg/kg/injection, schedule: Q01DX009 (ip), vehicle: saline sonified) was 100 % of control; the T/C (dose: 100.0 mg/kg/injection, schedule: Q01DX009 (ip), vehicle: saline sonified) is 94 % of control.

In the case of `O=C(O)CCSCCC(=O)O`, the T/C was 104 % of control (dose: 100.0 mg/kg/injection, schedule: Q01DX001 (ip), vehicle: Klucel (hydroxypropylcellulose) (HPC)); 104 % of control under setting [1]; 108 % of control (dose: 200.0 mg/kg/injection, schedule: Q01DX001 (ip), vehicle: Klucel (hydroxypropylcellulose) (HPC)); 100 % of control under setting [3]; 116 % of control (dose: 400.0 mg/kg/injection, schedule: Q01DX001 (ip), vehicle: Klucel (hydroxypropylcellulose) (HPC)); 113 % of control under setting [4].

Regarding `FC(F)(F)COP1SCCS1`, the T/C runs as follows: (dose: 25.0 mg/kg/injection, schedule: Q01DX005 (ip), vehicle: saline with Tween-80) 97 % of control; under setting [17], 97 % of control.

In the case of `NOCc1cccc(Cl)c1`, the T/C (dose: 50.0 mg/kg/injection, schedule: Q04DX003 (ip), vehicle: saline with Tween-80) was 91 % of control and the T/C (dose: 100.0 mg/kg/injection, schedule: Q04DX003 (ip), vehicle: saline with Tween-80) is 91 % of control.

Consider `O=[N+]([O-])C(c1ccccc1)C(c1ccccc1)C(c1ccccc1)[N+](=O)[O-]` (stereo not given), for which the T/C is 103 % of control under setting [17]; 87 % of control (dose: 100.0 mg/kg/injection, schedule: Q01DX005 (ip), vehicle: saline with Tween-80); 91 % of control (dose: 200.0 mg/kg/injection, schedule: Q01DX005 (ip), vehicle: saline with Tween-80).
